According to patent US8980933B2, “Combretastatin analogs for use in the treatment of cancer” (Universitat Bayreuth, priority 2010, dated 2015):
“Also recorded” adds a separate entry of the source.

Assays:
[1] = system: 1411HP germ cell tumor xenografts; assay: Nude mouse xenograft model of resistant 1411HP; assay type: in vivo; conditions: 60 mg/kg peroral; 24 h
HL-60 cells = assay: Mitochondrial membrane assay (JC-1), HL-60; assay type: cell-based, human; conditions: 5 μM, red/green fluorescence ratio relative to untreated controls (100%), mean ± SD
Experimental: Values represent means of four independent experiments±standard deviation.
Changes in mitochondrial membrane potential were determined by the Mitochondrial Membrane Detection Kit (Stratagene, La Jolla, Calif., USA) according to the manufacturer's procedure. 72 h following treatment with 5 μM of the test compounds, cell samples were centrifuged at 400 g for 5 min. The pellets were resuspended in 500 μL diluted JC-1 solution, incubated at 37° C. for 15 min (HL-60) and then centrifuged again for 5 min at 400 g. After washing, the pellets were resuspended in 100 μL PBS and transferred into the wells of a black 96-well plate. The red (λex=585 nm, λem=590 nm) and green (λex=510 nm, λem=527 nm) fluorescence intensities were measured and their ratio was calculated.

[2] = Toxicity / tolerability in mice; assay type: in vivo
Experimental: Prior to testing compound 5b, healthy animals of this type were treated with an ascending range of doses of 5b in order to establish a toxicity profile. […] Suitable dosages were then administered in further tests in a nude mouse xenograft model of a pair of germ cell tumor cell lines, the chemoresistant cell line 1411HP and the chemosensitive cell line H12.1. These cell lines retain their individual in vitro chemosensitivities to cisplatin when grown as xenograft tumors and so may serve as a model of the clinical situation of resistance to chemotherapy (Mueller et al. Cancer Res. 2003; Mueller et al. Tumor Biol. 2006).
Compounds 5b, 6b and 6f were also tested in terms of feasibility of oral administration. Mice received a single dose of 40 mg/kg body weight of 5b, 6b or 6f, respectively. […] Then compounds 6b or 6f were given peroral as dual-dose application on two consecutive days in accordance to the i.p. treatment scheme used for the regression trials but with a 2-fold higher dose of 2×40 mg/kg body weight.

[3] = system: H12.1 germ cell tumor cell line; assay: SRB-cytotoxicity assay, H12.1; assay type: cell-based; conditions: Homo sapiens, 96 h
Experimental: The cytotoxic activity of 5b was established by standard colorimetric tests (SRB- and MTT-assays) against various tumor cell lines of different entities. For the SRB cytotoxicity assay, dose-response curves of the testicular germ cell tumor cell lines exposed to drug concentrations of 0.001-10 μM were established using the sulforhodamine-B (SRB) microcuiture colorimetric assay (Papazisis et al. Optimization of the sulforhodamine B colorimetric assay. J. Immunol. Methods 1997, 208, 151-158) and performed as described in: Müller et al. Failure of activation of caspase-9 induces a higher threshold for apoptosis and cisplatin resistance in testicular cancer. Cancer Res. 2003, 63, 513-521. Briefly, cells were seeded into 96-well plates on day 0, at cell densities previously determined to ensure exponential cell growth during the period of the experiment. On day 1, cells were treated with the drugs dissolved in medium to give the appropriate concentrations for indicated times and the percentage of surviving cells relative to untreated controls was determined on day 5.

tubulin = assay: Tubulin Polymerization assay (fluorescence kit); assay type: biochemical
Experimental: Analysis of tubulin polymerization was performed using the Tubulin Polymerization Assay Kit (Cytoskeleton, USA) according to manufacturer's instructions. The assay is fluorescence-based and tubulin polymerization was followed by measuring RFU (relative fluorescence units) on the SpectraFluor Plus (Tecan, Switzerland) using the following filters: excitation 360 nm, emission 465 nm.

[4] = Chemical stability of solutions stored for one month, retested in vitro; assay type: physicochemical; conditions: solution stored for one month vs freshly prepared; tubulin polymerization and SRB assays
Experimental: (§1) For the biotests compound 5b was dissolved in physiological saline solution. […] Customarily, in vivo applications to animals require only concentrations up to 3 mM. In order to check the chemical stability of such solutions of 5b they were stored for one month and subsequently used in in vitro tests alongside freshly prepared solutions of the same concentrations of 5b.

[5] = Solubility in physiological saline solution; assay type: physicochemical; conditions: saline or isotonic, read-out: concentration achieved in physiological saline solution
Experimental: as §1

SMILES	vascular disrupting effect after oral administration [1]	Intact mitochondria [%] in HL-60 cells after 72 h (HL-60 cells) [%]	toxicity after oral administration ([2]; peroral dual-dose 2×40 mg/kg on two consecutive days)	toxicity after oral administration ([2]; single dose 40 mg/kg oral)	toxicity after oral administration ([2]; single dose 60 mg/kg peroral)	IC50 [3] [nM]	inhibition of tubulin polymerization (tubulin)	chemical stability in solution (activity retained) [4]	solubility [5] [mM]	toxicity profile ([2]; healthy mice, ascending range of doses)
COc1ccc(-c2c(-c3cc(Br)c(OC)c(OC)c3)ncn2C)cc1N [compound 6b, 1-methyl-5-(3-amino-4-methoxyphenyl)-4-(3-bromo-4,5-dimethoxyphenyl)-imidazole]	occurred to same extent as seen after i.p. application	66 ± 10	well tolerated and induced only a transient and marginal loss of body weight	No signs of toxicity were observed	No signs of toxicity were observed	–	–	–	–	–
COc1ccc(-c2c(-c3cc(Cl)c(OC)c(OC)c3)ncn2C)cc1N [compound 5b, 1-methyl-5-(3-amino-4-methoxyphenyl)-4-(3-chloro-4,5-dimethoxyphenyl)-imidazole]	–	–	–	No signs of toxicity were observed	–	30 to 50	effectively inhibits the polymerization of tubulin	No loss of activity; also recorded: persistence of efficacy; also recorded: high, unattenuated activity and efficacy	≥ 10	very well tolerated by the mice even at relatively high concentrations
